Read-outs that look alike come from different tables or passages of the source.
Key:
[1] = test system: MCF-7 human breast carcinoma; test: In vitro sensitivity, sulforhodamine B cytotoxicity assay, MCF-7 (Table 2); assay type: cell-based; conditions: 72-hour incubation; averaged from two separate experiments
[2] = test system: MCF-7/ADR (adriamycin-resistant); test: In vitro sensitivity, sulforhodamine B cytotoxicity assay, MCF-7/ADR (Table 2); assay type: cell-based, human; conditions: 72-hour incubation; averaged from two separate experiments
[3] = test system: HT-29 human colon carcinoma cells; test: In vitro sensitivity, sulforhodamine B cytotoxicity assay, HT-29 (Table 2); assay type: cell-based; conditions: 72-hour incubation; averaged from two separate experiments
CDF1 female mice = test: Acute toxicity of liposomal paclitaxel or paclitaxel derivative given intraperitoneally; conditions: i.p.; for number of mice that died within the first 14 days post-injection/total: liposomes
Description: Moreover, liposomes containing either paclitaxel or a 2′-(2-bromo) hydrophobic paclitaxel derivative (containing either a six-carbon (C-6), C-8, C-12, C-14 or C-16 acyl chain at the 2′ position) were administered, intraperitoneally in 5 doses, to SCID (severe combined inimunodeficiency) mice bearing a human ovarian cancer (OvCar 3), at a dose of 12.5 mg paclitaxel per kg or a dose of 50 mg paclitaxel derivative per kg.
CDF1 female mice, 5 or 10 mice per group, were intraperitoneally administered either paclitaxel-, 2′-C6-paclitaxel derivative-, or 2′-C16-paclitaxel derivative-containing liposomes, in a single dose, or 5 doses, of either 12.5, 25, 50, 100, 200, 300. 400 or 500 mg of paclitaxel or paclitaxel derivative per kg of mouse body weight.

CDF1 mice = test: In vivo toxicity, i.v. x 5, non-tumor bearing mice; conditions: 30 days observation
Description: A separate group (n=5) was injected with concentrations of Cremophor® EL and ethanol (in PBS) equivalent to the highest concentration of the test treatment. Mortality was recorded daily and body weights taken at least twice weekly for an observation period of 30 days.

[4] = test system: OVCAR-3 human ovarian cancer; test: i.p. OVCAR-3 tumor, i.v. treatment, survival (FIG. 6); assay type: in vivo, mice
Description: Mice were observed daily for mortality and % ILS was calculated as described above.

[5] = test system: OVCAR-3 human ovarian cancer; test: s.c. OVCAR-3 tumor, i.v. treatment, tumor volume (FIG. 7); assay type: in vivo, mice
Description: OVCAR-3 human ovarian cancer.
The tumor volume (mm^3) from tumor measurement was calculated: (Length * (Width/2)^2 * π). Mice were sacrificed when the average tumor volume of the group reached 1500 mm^3.

A549 human lung cancer = test: s.c. A549 tumor, i.v. treatment, tumor volume (FIG. 8); assay type: in vivo, mice
Excerpt: Mice were sacrificed when the average tumor volume of the group reached 1500 mm^3.

[6] = Description: The 20 mg/mL formulation was further diluted to 6 mg/mL in 5% dextrose. […] At 0h, 24h, 1, 2, 3, 4, and 5 weeks samples were chromatographically analyzed by diluting the drugs to 1 mg/mL with 5% dextrose and then mixing 1:1 with acetonitrile. The chromatographic system consisted of a Shimadzu LC100 system with a UV detector. The column used was an Inertsil-ODS2, 150 ×4.6 mm (5 micron particle size) from Keystone Scientific (Bellefonte, Pa.). 20 μL of each sample was injected and read at 227 nm at ambient temperature. […] The constant flow rate was 1 mL/min.
OVCAR-3 cancer cells = conditions: read-out: GI50 ± S.D. OVCAR-3; 72 hr, SRB assay
Description: Briefly, 96-well microtiter plates were inoculated (100 μL/well) with 5×10^3 (A549) or 7.5×10^3 (OVCAR-3) cells/well, in RPMI-1640 supplemented with 10% FBS (growth media). The plates were incubated for 24 hr at 37° C., 100% humidity and 5% CO2. At 24 hours, growth media (100 μL) was added to designated “time zero” plates. Similarly, serial dilutions of drug or vehicle (in media) were added (100 μL aliquots) to the test and vehicle control wells at twice the predetermined highest concentration. There were triplicate wells on each plate and duplicate plates (total 6 wells) for each drug concentration. The test plates were incubated as above for 72 hr. Cells (including time zero plates) were then fixed with 50 μL of 50% trichloroacetic acid (TCA) (w:v) for adherent cells or 80% TCA for suspended cells, and plates refrigerated at 4° C. for 1 hr. […] The bound stain was solubilized with 100 μL of 10 mM Tris buffer and the optical density was read spectrophotometrically at 490 nm (Microplate Reader Model 3550-UV, Bio-Rad, Hercules, Calif.). Percent growth was calculated as follows: (T-T0) / (C-T0)×100; where (T)=mean optical density of treated wells at a given drug concentration, (T0)=mean optical density of time zero wells, and (C)=mean optical density of control wells.

A549 human NSCLC = test: i.p. A549 tumor, i.p. treatment, survival; conditions: for % ILS / LTS/n / MST Days + SEM / Median survival time: treatment days 1, 3, 5, 7 and 9 i.p.
Description: Note that long-term survivors (mice that survived through day 300 after cell inoculation) were not included in mean, median, or % ILS calculations.
SCID mice (6/group) were injected with 5×10^6 A549 human NSCLC cells i.p. (day 0).

[7] = test system: OVCAR-3 human ovarian cancer; test: i.p. OVCAR-3 tumor, i.p. treatment, survival; conditions: for % ILS / LTS/n (mice that survived to 300 days) / MST Days ± SEM (n) / Median survival time: treated days 20, 22, 24, 26 and 28 i.p.; for MST Days ± SEM (n) / Median survival time: long-term survivors not included
Description: C.B-17 SCID female mice were injected i.p. with 5×10^6 OVCAR-3 human ovarian cancer cells (day 0). […] Note that long-term survivors (mice that survived through day 300 after cell inoculation) were not included in mean, median, or % ILS calculations.

Description for A549 cancer cells: Briefly, 96-well microtiter plates were inoculated (100 μL/well) with 5×10^3 (A549) or 7.5×10^3 (OVCAR-3) cells/well, in RPMI-1640 supplemented with 10% FBS (growth media). The plates were incubated for 24 hr at 37° C., 100% humidity and 5% CO2. At 24 hours, growth media (100 μL) was added to designated “time zero” plates. Similarly, serial dilutions of drug or vehicle (in media) were added (100 μL aliquots) to the test and vehicle control wells at twice the predetermined highest concentration. There were triplicate wells on each plate and duplicate plates (total 6 wells) for each drug concentration. The test plates were incubated as above for 72 hr. Cells (including time zero plates) were then fixed with 50 μL of 50% trichloroacetic acid (TCA) (w:v) for adherent cells or 80% TCA for suspended cells, and plates refrigerated at 4° C. for 1 hr. The supernatant was discarded (suspended cell plates were first centrifuged) and the wells rinsed six times with tap water and air-dried. One hundred microliters of 0.4% SRB in 1% acetic acid were added to each well and the plates were incubated under ambient (RT) conditions for 10 min. Unbound stain was removed by rinsing the wells three times with 1% acetic acid. The plates were then air-dried for 24 hr. The bound stain was solubilized with 100 μL of 10 mM Tris buffer and the optical density was read spectrophotometrically at 490 nm (Microplate Reader Model 3550-UV, Bio-Rad, Hercules, Calif.). Percent growth was calculated as follows: (T-T0) / (C-T0)×100; where (T)=mean optical density of treated wells at a given drug concentration, (T0)=mean optical density of time zero wells, and (C)=mean optical density of control wells.

CCCCCCCCCCCCCC[C@@H](Br)C(=O)O[C@@H](C(=O)O[C@H]1C[C@@]2(O)[C@@H](OC(=O)c3ccccc3)[C@@H]3[C@]4(OC(C)=O)CO[C@@H]4C[C@H](O)[C@@]3(C)C(=O)[C@H](OC(C)=O)C(=C1C)C2(C)C)[C@@H](NC(=O)c1ccccc1)c1ccccc1 [BrC16HT, 2′-(R)-[2-bromohexadecanoyl] paclitaxel]
GI50 [1]: 71 nM | GI50 [2]: > 10 µM | GI50 [3]: 59.5 nM | relative acute toxicity of the liposomes (CDF1 female mice; CDF1 mice): less toxic than were the 2-bromo-C6 paclitaxel derivative-containing liposomes | number of mice that died within the first 14 days post-injection/total (CDF1 female mice; single dose 300 mg/kg): 1/5 | number of mice that died within the first 14 days post-injection/total (CDF1 female mice; single dose 400 mg/kg): 1/5 | number of mice that died within the first 14 days post-injection/total (CDF1 female mice; single dose 500 mg/kg): 0/5 | Number of Mice surviving/Total (CDF1 mice; i.v. days 1 through 5, 12.5 mg/kg): 10/10 | Number of Mice surviving/Total (CDF1 mice; i.v. days 1 through 5, 25 mg/kg): 9/10 | Number of Mice surviving/Total (CDF1 mice; i.v. days 1 through 5, 37.5 mg/kg): 0/10 | Number of Mice surviving/Total (CDF1 mice; i.v. days 1 through 5, 50 mg/kg): 0/10 | medium survival times ([4]; 12.5 mg/kg i.v. on days 20, 22, 24, 26 & 28): 182 days | survival time compared to controls ([4]; 25 mg/kg i.v. on days 20, 22, 24, 26 & 28): significantly prolonged compared to controls (p<0.0001) | survival time vs. control ([4]; 12.5 or 25 mg/kg i.v. on days 1, 3, 5, 7, 9, 42, 44, 46, 48 & 50 (FIG. 6a)): significantly (p<0.05 vs. control) increased the survival time | efficacy compared with Taxol® ([4]; 12.5 or 25 mg/kg i.v., FIG. 6a schedule): more effective than Taxol® | survival time vs. control ([4]; i.v. on days 20, 22, 24, 26 & 28, BrC16HT 12.5 or 25 mg/kg, Taxol® 12.5 mg/kg (FIG. 6b)): significantly (p<0.05 vs. control) increased the survival time | delaying tumor growth ([5]; 12.5 mg/kg i.v. on days 1, 3, 5, 7 & 9): approximately 79 days | tumor growth suppression ([5]; 25 mg/kg i.v. on days 1, 3, 5, 7 & 9): suppressed tumor growth completely up to 120 days post-implantation | tumor growth vs. control ([5]; i.v. on days 1, 3, 5, 7 & 9, BrC16HT 12.5-25 mg/kg, Taxol® 25 mg/kg): significantly (p<0.05 vs. control) inhibited the tumor growth | efficacy compared with Taxol® at 25 mg/kg (A549 human lung cancer; all early treatment schedules (FIGS. 8a-c), BrC16HT at 12.5 or 25 mg/kg i.v.): more effective than Taxol® at 25 mg/kg | tumor regression compared with Taxol® (A549 human lung cancer; delayed schedule, days 20, 22, 24, 26 and 28, 25 mg/kg i.v. (FIG. 8d)): greater and more prolonged tumor regression | tumor growth vs. control (A549 human lung cancer; i.v., independent of the dose schedule, BrC16HT 12.5-25 mg/kg, Taxol® 25 mg/kg): significantly (p <0.05 vs. control) inhibited the tumor growth | Percentage of BrC16HT in Sample ([6]; 6 mg/mL in Crem/EtOH (50:50), undiluted, storage 4° C., 0 h): 93% | Percentage of BrC16HT in Sample ([6]; 6 mg/mL in Crem/EtOH (50:50), undiluted, storage 4° C., 1 Week): 83% | Percentage of BrC16HT in Sample ([6]; 6 mg/mL in Crem/EtOH (50:50), undiluted, storage 4° C., 2 Week): 93% | Percentage of BrC16HT in Sample ([6]; 6 mg/mL in Crem/EtOH (50:50), undiluted, storage 4° C., 3 Week): 61% | Percentage of BrC16HT in Sample ([6]; 6 mg/mL in Crem/EtOH (50:50), undiluted, storage 4° C., 4 Week): 58% | Percentage of BrC16HT in Sample ([6]; 6 mg/mL in Crem/EtOH (50:50), undiluted, storage 4° C., 5 Week): 53% | Percentage of BrC16HT in Sample ([6]; 6 mg/mL in Crem/EtOH (50:50), undiluted, storage 4° C., 24 h): 89% | Percentage of BrC16HT in Sample ([6]; 6 mg/mL in Crem/EtOH (50:50), undiluted, storage 26° C., 0 h): 95% | Percentage of BrC16HT in Sample ([6]; 6 mg/mL in Crem/EtOH (50:50), undiluted, storage 26° C., 1 Week): 42% | Percentage of BrC16HT in Sample ([6]; 6 mg/mL in Crem/EtOH (50:50), undiluted, storage 26° C., 2 Week): 22% | Percentage of BrC16HT in Sample ([6]; 6 mg/mL in Crem/EtOH (50:50), undiluted, storage 26° C., 3 Week): 14% | Percentage of BrC16HT in Sample ([6]; 6 mg/mL in Crem/EtOH (50:50), undiluted, storage 26° C., 4 Week): 8% | Percentage of BrC16HT in Sample ([6]; 6 mg/mL in Crem/EtOH (50:50), undiluted, storage 26° C., 5 Week): 5% | Percentage of BrC16HT in Sample ([6]; 6 mg/mL in Crem/EtOH (50:50), undiluted, storage 26° C., 24 h): 84% | Percentage of BrC16HT in Sample ([6]; 20 mg/mL in Crem/EtOH (50:50) diluted with 5% dextrose to 6 mg/mL, storage 4° C., 0 h): 92% | Percentage of BrC16HT in Sample ([6]; 20 mg/mL in Crem/EtOH (50:50) diluted with 5% dextrose to 6 mg/mL, storage 4° C., 1 Week): 90% | Percentage of BrC16HT in Sample ([6]; 20 mg/mL in Crem/EtOH (50:50) diluted with 5% dextrose to 6 mg/mL, storage 4° C., 2 Week): 88% | Percentage of BrC16HT in Sample ([6]; 20 mg/mL in Crem/EtOH (50:50) diluted with 5% dextrose to 6 mg/mL, storage 4° C., 3 Week): 83% | Percentage of BrC16HT in Sample ([6]; 20 mg/mL in Crem/EtOH (50:50) diluted with 5% dextrose to 6 mg/mL, storage 4° C., 4 Week): 85% | Percentage of BrC16HT in Sample ([6]; 20 mg/mL in Crem/EtOH (50:50) diluted with 5% dextrose to 6 mg/mL, storage 4° C., 5 Week): 82% | Percentage of BrC16HT in Sample ([6]; 20 mg/mL in Crem/EtOH (50:50) diluted with 5% dextrose to 6 mg/mL, storage 4° C., 24 h): 91% | Percentage of BrC16HT in Sample ([6]; 20 mg/mL in Crem/EtOH (50:50) diluted with 5% dextrose to 6 mg/mL, storage 26° C., 0 h): 97% | Percentage of BrC16HT in Sample ([6]; 20 mg/mL in Crem/EtOH (50:50) diluted with 5% dextrose to 6 mg/mL, storage 26° C., 1 Week): 93% | Percentage of BrC16HT in Sample ([6]; 20 mg/mL in Crem/EtOH (50:50) diluted with 5% dextrose to 6 mg/mL, storage 26° C., 2 Week): 90% | Percentage of BrC16HT in Sample ([6]; 20 mg/mL in Crem/EtOH (50:50) diluted with 5% dextrose to 6 mg/mL, storage 26° C., 3 Week): 81% | Percentage of BrC16HT in Sample ([6]; 20 mg/mL in Crem/EtOH (50:50) diluted with 5% dextrose to 6 mg/mL, storage 26° C., 4 Week): 88% | Percentage of BrC16HT in Sample ([6]; 20 mg/mL in Crem/EtOH (50:50) diluted with 5% dextrose to 6 mg/mL, storage 26° C., 5 Week): 87% | Percentage of BrC16HT in Sample ([6]; 20 mg/mL in Crem/EtOH (50:50) diluted with 5% dextrose to 6 mg/mL, storage 26° C., 24 h): 99% | GI50 relative to Taxol® (A549 cancer cells; in both cell lines (A549, OVCAR-3)): approximately ten times higher than Taxol® | GI50 (A549 cancer cells; read-out: GI50 ± S.D. A549, 72 hr, SRB assay): 29 ± 5.9 nM | GI50 (OVCAR-3 cancer cells): 20 ± 3.3 nM | survival time of tumor-bearing mice vs. control (A549 human NSCLC; i.p. on days 1, 3, 5, 7 & 9): significantly (p<0.05 vs. control) increased the survival time | % ILS (A549 human NSCLC; 25 mg/kg): 247% | LTS/n (A549 human NSCLC; 25 mg/kg): 0/6 | MST Days + SEM (A549 human NSCLC; 25 mg/kg): 117 + 8 Days | Median survival time (A549 human NSCLC; 25 mg/kg): 112 days | % ILS (A549 human NSCLC; 50 mg/kg): 450% | LTS/n (A549 human NSCLC; 50 mg/kg): 0/6 | MST Days + SEM (A549 human NSCLC; 50 mg/kg): 186 + 30 Days | Median survival time (A549 human NSCLC; 50 mg/kg): 171 days | survival compared to Taxol® 25 mg/kg ([7]; BrC16HT at both 25 and 50 mg/kg, delayed i.p. schedule): significantly increased survival | long-term survivors (LTS), in words ([7]; delayed i.p. schedule (Table 9b)): clear dose-response effect with regard to LTS | survival of tumor-bearing mice vs. control ([7]; early (days 1, 3, 5, 7 & 9) and delayed (days 20, 22, 24, 26 & 28) i.p. treatment schedules): significantly prolonged (p<0.05 vs. control) the survival | survival time compared with Taxol® at equivalent doses ([7]; early and delayed i.p. schedules): more effective than Taxol® in extending survival time | % ILS ([7]; 25 mg/kg): 115% | LTS/n (mice that survived to 300 days) ([7]; 25 mg/kg): 4/10 | MST Days ± SEM (n) ([7]; 25 mg/kg): 220 ± 13 (6) Days | Median survival time ([7]; 25 mg/kg): 221 days | % ILS ([7]; 50 mg/kg): 80% | LTS/n (mice that survived to 300 days) ([7]; 50 mg/kg): 7/10 | MST Days ± SEM (n) ([7]; 50 mg/kg): 183 ± 67 (3) Days | Median survival time ([7]; 50 mg/kg): 245 days
